{"source": "patent US8648080B2", "about": "“Acid pump antagonist for the treatment of diseases involved in abnormal gastrointestinal motility” (RaQualia Pharma Inc., priority 2009, dated 2014)", "system": "gastrointestinal motility in the gastric antrum and duodenum", "experiment": "gastrointestinal motility under pentagastrin-stimulated gastric acid secretion in conscious dogs with force transducers", "assay_type": "in vivo, Beagle dogs", "protocol": "Beagle dogs surgically wearing a force transducer at gastric antrum and serosal side of duodenum were used, and the motion of the gastric antrum and duodenum under wakefulness were observed. After confirming the phase III in the hungry condition, gastric acid secretion was stimulated by pentagastrin subcutaneous infusion (6 microg/kg/hr). Pentagastrin infusion was continued until the end of the study. After about 2 hours from pentagastrin infusion, an acid pump antagonist (compound A) was orally administered, and then gastrointestinal motility was continuously observed for 2-3 hours. In FIG. 1, the horizontal axis represents the time at measuring, and the vertical axis represents the gastrointestinal contraction towards muscle bridge of gastric antrum or duodenum. The phase III contraction disappeared by pentagastrin stimulation, 6 microg/kg/hr, which is known to promote gastric acid secretion; and uncoordinated contraction, which is different from the contraction of postprandial period with solid food, occurred in the stomach and duodenum.", "data": [{"smiles": "COCCn1c(C)nc2cc(C(=O)N(C)C)c3c(c21)OC(c1ccccc1)CC3", "note": "(single isomer, unassigned; (-)) [compound A, (−)-1-(2-methoxyethyl)-N,N,2-trimethyl-8-phenyl-1,6,7,8-tetrahydrochromeno[7,8-d]imidazole-5-carboxamide]", "values": [{"measurement": "effect on gastrointestinal motility (phase III contraction / IMC)", "setting": "0.3 mg/kg orally, about 2 hours after start of pentagastrin s.c. infusion 6 microg/kg/hr, hungry condition, FIG. 1", "value": "the phase III contraction occurred in the stomach and duodenum"}, {"measurement": "time after administration at which phase III contraction occurred", "setting": "0.3 mg/kg orally, pentagastrin infusion 6 microg/kg/hr, stomach and duodenum", "value": "one"}]}, {"smiles": "Cc1cccc(C)c1CNc1cc(C(=O)NCCO)cn2c(C)c(C)nc12", "note": "[AZD0865, 8-[{2,6-dimethylbenzyl}amino]-N-[2-hydroxyethyl]-2,3-dimethyl-imidazo[1,2-a]pyridin-6-carboxamide]", "values": [{"measurement": "time after dosing until irregular contraction tended to subside", "setting": "1.5 mg/kg orally, pentagastrin infusion, method as Example 1", "value": "one"}, {"measurement": "effect on gastrointestinal motility (phase III contraction / IMC)", "setting": "1.5 mg/kg orally, pentagastrin infusion, method as Example 1, FIG. 4", "value": "IMC occurred"}]}, {"smiles": "Cc1nc(Nc2ccc(F)cc2)nc(N2CCc3ccccc3C2C)c1C.Cl", "note": "(centres unmarked) [revaprazan, 5,6-dimethyl-2-(4-fluoro-phenylamino)-4-(1-methyl-1,2,3,4-tetrahydroisoquinoline-2-yl)pyrimidine hydrochloride]", "values": [{"measurement": "time after dosing until irregular contraction tended to subside", "setting": "10 mg/kg orally, pentagastrin infusion, method as Example 1", "value": "one"}, {"measurement": "effect on gastrointestinal motility (phase III contraction / IMC)", "setting": "10 mg/kg orally, pentagastrin infusion, method as Example 1, FIG. 3", "value": "IMC occurred"}]}, {"smiles": "Cc1nc2c(O[C@H]3CCOc4cc(F)cc(F)c43)cc(C(=O)N(C)C)cc2[nH]1", "note": "[compound B, (S)-(−)-4-[(5,7-difluoro-3,4-dihydro-2H-chromen-4-yl)oxy]-N,N,2-trimethyl-1H-benzimidazole-6-carboxamide]", "values": [{"measurement": "time after dosing until IMC occurred", "setting": "1 mg/kg orally, pentagastrin infusion, method as Example 1", "value": "one"}, {"measurement": "effect on gastrointestinal motility (phase III contraction / IMC)", "setting": "1 mg/kg orally, pentagastrin infusion, method as Example 1, FIG. 2", "value": "IMC occurred"}]}]}
